From US9789114B2, “Compounds as HIF-1α inhibitors and manufacturing process thereof” (DONGGUK UNIVERSITY INDUSTRY-ACADEMIC COOPERATION FOUNDATION, priority 2011, dated 2017)
Like-named read-outs stand apart in the source and are kept apart here.

Tests used:
[1] = system: HIF-1α-mediated HRE transcriptional activity; assay: Assay for inhibition of HIF-1α-mediated transcriptional activity (HRE reporter assay); assay type: cell-based, human; settings: Homo sapiens, HCT-116, HCT116 cells, 12 hours under hypoxia (1% O2), read-out: Inhibitory activity against HIF-1α (10 μM)
Method: <Experiment 1> Assay for Inhibition of HIF-1α-Mediated Transcriptional Activity (HRE Reporter Assay)
The compounds can be developed as anti-cancer drugs, because the compounds inhibiting HIF-1α-mediated HRE transcriptional activity induced by hypoxia can suppress the growth and metastasis of cancer.
Inhibitory effects of the compounds according to the present invention, from Formula I-1 to I-42, on HIF-1α-mediated transcriptional activity were evaluated using this assay. pGL3-HRE-luciferase vector was constructed as follows. Six copies of HRE (Hypoxia Responsive Element, 5′-ACGTG-3′) from human VEGF genes were inserted into the multi-cloning site of a pGL3-basic vector (Promega). A luciferase gene was used as a reporter gene.
In detail, HCT116(ATCC #CCL-247) human colon cancer cells were seeded in 48-well cell culture plates. The cells were co-transfected with 25 ng of pGL3-HRE-luciferase and 2.5 ng of Renila control vectors using Polyfect reagent next day. After 24 hours of incubation, the cells were incubated for an additional 4 hours with replaced cell culture media. The cells were treated with various concentrations (0, 1, 3, 5, 10, and 20 μM) of the above compounds according to the present invention and incubated for 12 hours under hypoxia (1% O2, 94% N2, and 5% CO2). The luciferase assay was performed using a dual-luciferase reporter assay system (Promega). After cell lysate preparation with RIPA buffer, induced luciferase activity under hypoxic conditions was determined to examine inhibitory effects of the compounds according to the present invention, from Formula I-1 to I-42, on HIF-1α-mediated transcriptional activity.

HIF-1α = target: T1, HIF-1α (Homo sapiens, UniProt Q16665); assay: Inhibition of hypoxia-induced HIF-1α accumulation, western blot in HCT116 cells; assay type: cell-based; settings: HCT116, hypoxia 1% O2, 0-30 μM, 12 hours, FIG. 1
T1 construct: endogenous in cells; host or cells: HCT116 human colon cancer cells (ATCC #CCL-247)
Method: <Experiment 2> In Vitro Studies for Inhibition of Hypoxia-Induced HIF-1α Accumulation
Inhibition of HIF-1α accumulation by the compounds according to the present invention was determined in HCT116 human colon cancer cells. In particular, western blot analysis was used to identify the compounds, I-3, I-6, I-8, I-16, I-19, I-22˜I-24, and I-27˜I-36, which inhibited HIF-1α accumulation under hypoxia.
(§1) First, HCT116 human colon cancer cells (ATCC #CCL-247) were plated at the concentration of 2×10^5 cells/ml. After 24 hours, the cells were incubated under hypoxia (1% O2, 94% N2, and 5% CO2, expressed as 1% O2 in FIG. 1) for 4 hours in order to induce HIF-la accumulation. Cells were treated with the compounds at various concentrations (0, 3, 10, 20, and 30 μM) for 12 hours under hypoxia. The cells were then harvested, and lysed in RIPA buffer to obtain nuclear extracts. Cells grown at 20% O2 (normoxia) were used as control groups to compare HIF-1α-mediated gene expression under each condition. 30 μg of the nuclear extracts per sample was separated by SDS-PAGE (sodium dodecyl sulfate-polyacrylamide gel electrophoresis), and was then transferred to PVDF (polyvinylidene fluoride membrane) membranes. After membranes were probed with HIF-1α antibodies (R&D System), HIF-1α proteins were detected with HRP-conjugated secondary antibodies (Amersham-Pharmacia). GAPDH (Glyceraldehyde 3-phosphate dehydrogenase) was used as an internal control for loading in western blot analysis.

GAPDH = GAPDH expression level (internal control) in western blot, HCT116 cells; assay type: cell-based, human; settings: HCT116, hypoxia 1% O2, 0-30 μM, 12 hours, FIG. 1
Method: as §1

[2] = system: HCT116 colon cancer cells; assay: In vivo anti-cancer activity by oral administration, HCT116 tumor in nude mice; set-up: species or system BALB/c nu/nu mice; settings: for inhibition in vivo at 20 mg/kg: Mus musculus
Method: <Example 4> In Vivo Anti-Cancer Activity of Compounds by Oral Administration
(§2) In vivo anti-cancer activity of the compounds according to the present invention, I-3, I-6, I-8, I-16, I-19, I-22, I-23, and I-24, was measured in mice to evaluate in vivo efficacy by oral administration. Specifically, the nude mice were divided into test groups and control groups, each consisting of 4 mice. In vivo efficacy was evaluated by measuring body weight, tumor volume, and tumor weight.
(§3) Female nude mice 6 weeks old (BALB/c nu/nu, Charles River) were bred in germ-free breeding rooms maintained at constant temperature and humidity. After the nude mice were anesthetized, HCT116 colon cancer cells were implanted at a count of […] cells/mouse into the rectum in BALB/c nu/nu mice and then the incisions were closed with surgical clips. The size of tumor was measured by a caliper. When the size of transplanted tumor reached to 50˜60 mm^3, the above compounds according to the present invention were administered. In more detail, after the above compounds in test groups were dissolved at concentration of 20 mg/kg in a solvent containing 80% of physiological saline, 10% of DMAC (dimethylacetamide), and 10% Tween 80 (hereinafter referred to as ‘Solvent A’), […] of dissolved compounds were orally administered once a day. Mice in control groups were treated with […] of Solvent A alone once daily.
(§4) Tumor volume and body weight were measured to identify in vivo anti-cancer activity of the compounds according to the present invention by repetitive oral administration. Tumor volume and tumor growth inhibition (TGI) in Table 2 were calculated according to the below Mathematic FIG. 1 and FIG. 2, respectively. Tumor growth inhibition was converted to a percentage in Table 2.

[3] = Body weight change and side effects during 14 days of oral treatment in nude mice; assay type: in vivo, BALB/c nu/nu mice
Method: as §2, §3, §4
Moreover, severe side effects and statistically significant changes of body weight in all mice treated compounds were not shown for 14 days, comparing to control groups treated with vehicle. (Table 3)

[4] = HCT-116, 72 h, day 3, 20 mg/kg oral once a day, read-out: TGI (tumor growth inhibition), tumor volume
[5] = HCT-116, 120 h, day 5, 20 mg/kg oral once a day, read-out: TGI (tumor growth inhibition), tumor volume
[6] = HCT-116, 168 h, day 7, 20 mg/kg oral once a day, read-out: TGI (tumor growth inhibition), tumor volume
[7] = HCT-116, 240 h, day 10, 20 mg/kg oral once a day, read-out: TGI (tumor growth inhibition), tumor volume
[8] = HCT-116, 288 h, day 12, 20 mg/kg oral once a day, read-out: TGI (tumor growth inhibition), tumor volume
[9] = HCT-116, 336 h, day 14, 20 mg/kg oral once a day, read-out: TGI (tumor growth inhibition), tumor volume
[10] = HCT-116, 336 h, day 14, 20 mg/kg oral once a day, read-out: TGI (tumor growth inhibition), tumor weight
[11] = day 3, 20 mg/kg oral once a day
[12] = day 5, 20 mg/kg oral once a day
[13] = day 7, 20 mg/kg oral once a day
[14] = day 10, 20 mg/kg oral once a day
[15] = day 12, 20 mg/kg oral once a day
[16] = day 14, 20 mg/kg oral once a day
[17] = day 0, 20 mg/kg oral once a day

T1 sequence (Q16665 whole entry): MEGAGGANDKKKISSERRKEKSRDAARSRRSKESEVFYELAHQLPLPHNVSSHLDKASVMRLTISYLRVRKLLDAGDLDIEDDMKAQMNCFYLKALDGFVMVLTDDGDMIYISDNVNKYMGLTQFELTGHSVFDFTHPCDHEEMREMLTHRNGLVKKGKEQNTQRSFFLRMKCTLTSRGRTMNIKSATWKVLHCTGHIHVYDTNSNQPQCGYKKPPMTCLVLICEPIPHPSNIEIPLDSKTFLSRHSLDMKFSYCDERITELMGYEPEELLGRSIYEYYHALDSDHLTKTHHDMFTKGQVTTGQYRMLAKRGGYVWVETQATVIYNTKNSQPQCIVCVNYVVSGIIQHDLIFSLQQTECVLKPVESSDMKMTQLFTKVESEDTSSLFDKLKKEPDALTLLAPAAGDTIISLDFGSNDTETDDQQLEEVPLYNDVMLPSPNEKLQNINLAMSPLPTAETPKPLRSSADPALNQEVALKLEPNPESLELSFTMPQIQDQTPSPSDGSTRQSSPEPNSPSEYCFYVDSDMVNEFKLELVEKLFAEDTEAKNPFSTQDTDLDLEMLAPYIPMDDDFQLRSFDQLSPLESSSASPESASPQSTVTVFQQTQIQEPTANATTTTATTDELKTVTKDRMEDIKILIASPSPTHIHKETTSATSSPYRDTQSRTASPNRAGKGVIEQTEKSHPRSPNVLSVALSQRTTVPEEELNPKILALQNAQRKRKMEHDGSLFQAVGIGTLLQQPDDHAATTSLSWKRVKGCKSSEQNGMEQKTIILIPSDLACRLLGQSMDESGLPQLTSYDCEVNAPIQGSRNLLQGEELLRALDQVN

For CN1CCN(C(=O)CCOc2ccc(C34CC5CC(CC(C5)C3)C4)cc2)CC1 [Compound I-8, 3-(4-(Adamantan-1-yl)phenoxy)-1-(4-methylpiperazin-1-yl)propan-1-one], the inhibition at 10 µM [1] was 51 to 75%, the HIF-1α degradation (HIF-1α) was “promoted HIF-1α degradation” and the “inhibitory effects on HIF-1α accumulation” value (HIF-1α) was “significant inhibitory effects on HIF-1α accumulation”. For the same compound, the GAPDH expression levels (GAPDH) was “did not affect GAPDH expression levels”, the inhibition in vivo at 20 mg/kg [2, 4] was 27.6% and the inhibition in vivo at 20 mg/kg [2, 5] was 29%. For the same compound, the inhibition in vivo at 20 mg/kg [2, 6] was 30%, the inhibition in vivo at 20 mg/kg [2, 7] was 29.3% and the inhibition in vivo at 20 mg/kg [2, 8] was 28.7%. The inhibition in vivo at 20 mg/kg [2, 9] was 29.3%, the inhibition in vivo at 20 mg/kg [2, 10] was 31% and the Tumor volume [2, 11] was 24.6 ± 5.1 mm^3. The Tumor volume [2, 12] was 65.5 ± 9.0 mm^3, the Tumor volume [2, 13] was 122.2 ± 7.9 mm^3 and the Tumor volume [2, 14] was 184.3 ± 10.0 mm^3. For the same compound, the Tumor volume [2, 15] was 319.7 ± 22.0 mm^3, the Tumor volume [2, 16] was 471.1 ± 29.0 mm^3 and the Tumor weight [2, 16] was 1634.6 ± 357.2 mg. The Body weight change [3, 17] was 100.0 ± 0.0%, the Body weight change [3, 11] was 102.2 ± 2.8% and the Body weight change [3, 12] was 103.4 ± 2.8%. The Body weight change [3, 13] was 102.6 ± 2.2%, the Body weight change [3, 14] was 102.9 ± 1.5% and the Body weight change [3, 15] was 101.9 ± 1.0%. It also gave a Body weight change [3, 16] of 101.7 ± 2.6%.

With Cc1cc(C23CC4CC(CC(C4)C2)C3)ccc1OCC(=O)N1CC[N+](C)(C)CC1.[I-] [Compound I-16, 4-(2-(4-(Adamantan-1-yl)-2-methylphenoxy)acetyl)-1,1-dimethylpiperazin-1-ium iodide] the inhibition at 10 µM [1] was 51 to 75%, the HIF-1α degradation (HIF-1α) was “promoted HIF-1α degradation” and the “inhibitory effects on HIF-1α accumulation” value (HIF-1α) was “significant inhibitory effects on HIF-1α accumulation”. The GAPDH expression levels (GAPDH) was “did not affect GAPDH expression levels”, the inhibition in vivo at 20 mg/kg [2, 4] was 28.6% and the inhibition in vivo at 20 mg/kg [2, 5] was 27.8%. For the same compound, the inhibition in vivo at 20 mg/kg [2, 6] was 27.9%, the inhibition in vivo at 20 mg/kg [2, 7] was 28.8% and the inhibition in vivo at 20 mg/kg [2, 8] was 28.6%. It also gave an inhibition in vivo at 20 mg/kg [2, 9] of 29.2%, an inhibition in vivo at 20 mg/kg [2, 10] of 30.2% and a Tumor volume [2, 11] of 24.2 ± 6.1 mm^3. For the same compound, the Tumor volume [2, 12] was 66.7 ± 14.2 mm^3, the Tumor volume [2, 13] was 125.8 ± 13.6 mm^3 and the Tumor volume [2, 14] was 185.7 ± 20.2 mm^3. For the same compound, the Tumor volume [2, 15] was 320.4 ± 33.9 mm^3, the Tumor volume [2, 16] was 471.8 ± 26.0 mm^3 and the Tumor weight [2, 16] was 1655.7 ± 288.4 mg. For the same compound, the Body weight change [3, 17] was 100.0 ± 0.0%, the Body weight change [3, 11] was 104.1 ± 1.6% and the Body weight change [3, 12] was 104.2 ± 2.8%. The Body weight change [3, 13] was 104.3 ± 1.9%, the Body weight change [3, 14] was 105.8 ± 4.2% and the Body weight change [3, 15] was 103.2 ± 3.6%. It also gave a Body weight change [3, 16] of 102.3 ± 3.7%.

Compound CN1CCN(C(=O)C(C)(C)Oc2ccc(C34CC5CC(CC(C5)C3)C4)cc2)CC1 [Compound I-23, 2-(4-(Adamantan-1-yl)phenoxy)-2-methyl-1-(4-methylpiperazin-1-yl)propan-1-one] has an inhibition at 10 µM [1] of 76 to 100%, an inhibition in vivo at 20 mg/kg [2, 4] of 13.5% and an inhibition in vivo at 20 mg/kg [2, 5] of 14.8%. The inhibition in vivo at 20 mg/kg [2, 6] was 12.7%, the inhibition in vivo at 20 mg/kg [2, 7] was 13.1% and the inhibition in vivo at 20 mg/kg [2, 8] was 13.1%. It also gave an inhibition in vivo at 20 mg/kg [2, 9] of 14.6%, an inhibition in vivo at 20 mg/kg [2, 10] of 14.5% and a Tumor volume [2, 11] of 40.9 ± 8.2 mm^3. It also gave a Tumor volume [2, 12] of 98.0 ± 13.9 mm^3, a Tumor volume [2, 13] of 182.4 ± 19.9 mm^3 and a Tumor volume [2, 14] of 352.7 ± 53.6 mm^3. For the same compound, the Tumor volume [2, 15] was 577.3 ± 74.1 mm^3, the Tumor volume [2, 16] was 987.6 ± 143.7 mm^3 and the Tumor weight [2, 16] was 3659.9 ± 434.8 mg. The Body weight change [3, 17] was 100.0 ± 0.0%, the Body weight change [3, 11] was 100.8 ± 1.1% and the Body weight change [3, 12] was 101.0 ± 1.6%. It also gave a Body weight change [3, 13] of 100.9 ± 0.7%, a Body weight change [3, 14] of 101.9 ± 1.1% and a Body weight change [3, 15] of 101.6 ± 1.3%. For the same compound, the Body weight change [3, 16] was 102.0 ± 2.0%.

CN(C)CCNC(=O)C(C)(C)Oc1ccc(C23CC4CC(CC(C4)C2)C3)cc1 [Compound I-24, 2-(4-(Adamantan-1-yl)phenoxy)-N-(2-(dimethylamino)ethyl)-2-methylpropanamide] gave an inhibition at 10 µM [1] of 76 to 100%, an inhibition in vivo at 20 mg/kg [2, 4] of 19.5% and an inhibition in vivo at 20 mg/kg [2, 5] of 18.4%. For the same compound, the inhibition in vivo at 20 mg/kg [2, 6] was 15.4%, the inhibition in vivo at 20 mg/kg [2, 7] was 15.8% and the inhibition in vivo at 20 mg/kg [2, 8] was 14.3%. For the same compound, the inhibition in vivo at 20 mg/kg [2, 9] was 14.4%, the inhibition in vivo at 20 mg/kg [2, 10] was 13.9% and the Tumor volume [2, 11] was 38.1 ± 6.4 mm^3. The Tumor volume [2, 12] was 93.8 ± 21.0 mm^3, the Tumor volume [2, 13] was 176.8 ± 27.6 mm^3 and the Tumor volume [2, 14] was 341.7 ± 58.8 mm^3. The Tumor volume [2, 15] was 569.1 ± 72.4 mm^3, the Tumor volume [2, 16] was 990.1 ± 140.3 mm^3 and the Tumor weight [2, 16] was 3685.5 ± 357.5 mg. The Body weight change [3, 17] was 100.0 ± 0.0%, the Body weight change [3, 11] was 103.5 ± 3.0% and the Body weight change [3, 12] was 104.0 ± 3.6%. The Body weight change [3, 13] was 103.6 ± 3.6%, the Body weight change [3, 14] was 105.0 ± 4.0% and the Body weight change [3, 15] was 104.9 ± 4.1%. It also gave a Body weight change [3, 16] of 106.5 ± 4.5%.
